Assay results reported in paper PMC8151276, “An Integrated Approach toward NanoBRET Tracers for Analysis of GPCR Ligand Engagement” (Molecules, 2021).

Target: T1, DRD2 (Homo sapiens, UniProt P14416)
T1 construct: purchased Promega (in-house HiBiT-GPCR construct library, NanoBRET)
Assay: NanoBRET screen HiBiT-DRD2 in HEK293
Type: binding
Method: Each tracer candidate was screened across the entire library of HiBiT-GPCR constructs using NanoBRET as the detection modality. As depicted in Figure 4A, the specificity of interactions was evaluated through decrease in BRET due to competitive displacement of a bound tracer by excess parental compound. Each tracer was analyzed for binding to each HiBiT-GPCR fusion in the absence and in the presence of competing parental compound. Briefly, HEK293 cells were transfected with HiBiT-GPCR constructs diluted into promoterless DNA to reduce expression and maximize translocation to the cell surface. Each tracer candidate was then screened at concentrations of 1 μM and 0.1 μM across cells expressing these fusions. Cells were treated for 1.5 h with tracer either alone or in the presence of 20 μM competing parental compound (i.e., control). BRET was measured upon addition of purified LgBiT and subsequent complementation with HiBiT genetically fused to a GPCR. The specificity of interactions was assessed through a decrease in BRET signal due to competitive displacement of the bound tracer. To further gauge the robustness of these interactions, the fold response over the control (i.e., BRETtracer/BRETcontrol) was calculated. We chose a 1.5-fold response, which translates to ≥7-fold signal over noise as the minimal threshold required to score an interaction as positive.
HiBiT-GPCR DNA constructs were diluted in 10 mM Tris pH 8 to a final concentration of 0.01 μg/μL, arrayed in 96-well plates and stored at −20 °C. For transfection, HEK293 cells were suspended in Opti-MEM (without phenol red) supplemented with 2% fetal bovine serum (Seradigm) and 100 units/mL penicillin–streptomycin (Gibco) at a final concentration of 220,000 cells/mL and dispensed into white 96-well plates at 90 μL/well. Subsequent transfections and screens were carried using an Agilent Bravo Automated Liquid Handling Platform. First, the 96-well HiBiT DNA arrays were diluted 25-fold in Opti-MEM (without serum or phenol red) to a final concentration of 0.0004 μg/μL and 20 μL of the diluted DNAs were transferred into new 96-well plates. Next, promoterless carrier DNA (1 μg/μL) was diluted 25-fold (0.04 μg/μL) and then dispensed into the diluted arrays at 20 μL/well. Following brief mixing, Viafect transfection reagent (Promega) diluted 16-fold into Opti-MEM was dispensed into the plates at 40 μL/well. After mixing by pipetting, plates were incubated for 10 min on the pipetting station deck. The DNA-transfection reagent complexes were then added to plates containing cells. To facilitate the screen, 10 μL of DNA-transfection reagent complexes were added in duplicates to the top 4 and bottom 4 rows, resulting in two identical 48-well arrays per plate. Plates with transfected cells were incubated for 18–20 h at 37 °C/5% CO2. A screen of each tracer across the entire library using two different concentrations requires duplicate plates of transfected cells. Depending on the number of tracers being screened, transfections can be scaled up using the same ratios. The next day, for each tracer, four 20× screening solutions in tracer dilution buffer (Promega) were prepared: two duplicates at final concentration of 20 μM and two duplicates at a final concentration of 2 μM. […] The four resulting solutions were diluted 4-fold in Opti-MEM without serum or phenol red to generate 5× solutions (5 µM and 0.5 µM tracer +/− 100 μM competing compound). To screen the library, a BioTek MultiFlo FX liquid dispenser was used to dispense 22.5 µL of tracer solution to the top 4 rows and 22.5 µL tracer + competing compound solution to the 4 bottom rows. Plates were briefly mixed on an orbital shaker and incubated for 1.5 h at room temperature. […] Plates were briefly mixed on an orbital shaker and incubated for 15 min to allow complementation.

T1 sequence (P14416 whole entry): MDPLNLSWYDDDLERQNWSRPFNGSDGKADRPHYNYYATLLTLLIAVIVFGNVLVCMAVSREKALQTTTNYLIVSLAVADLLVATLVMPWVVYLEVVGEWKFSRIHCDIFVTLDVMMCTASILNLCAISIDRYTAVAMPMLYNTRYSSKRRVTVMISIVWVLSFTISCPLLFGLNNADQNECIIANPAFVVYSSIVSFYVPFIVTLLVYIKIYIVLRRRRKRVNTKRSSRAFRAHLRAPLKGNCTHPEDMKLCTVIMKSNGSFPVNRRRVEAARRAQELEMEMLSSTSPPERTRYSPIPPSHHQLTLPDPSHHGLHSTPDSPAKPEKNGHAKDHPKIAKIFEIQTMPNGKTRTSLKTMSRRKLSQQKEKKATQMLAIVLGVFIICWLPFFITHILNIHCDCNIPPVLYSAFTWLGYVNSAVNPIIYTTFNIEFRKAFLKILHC

| Compound | NanoBRET Fold Response (DRD2, tracer 0.1μM) | NanoBRET Fold Response (DRD2, tracer 1μM) | also measured |
| --- | --- | --- | --- |
| CCOC(=O)c1cc(C#N)c(N2CCC(C(=O)NS(=O)(=O)Cc3ccccc3/C=C/C(=O)NCCNC(=O)CCc3ccc4n3[B-](F)(F)[N+]3=C(c5ccc[nH]5)C=CC3=C4)CC2)nc1C [AZD1283-1-NB590] | – | – | NanoBRET Fold Response (DRD2, 0.1μM): 1.04; NanoBRET Fold Response (DRD2, 1μM): 1.08 |
| N#CN/C(=N\CCNC(=O)c1ccc(N)cc1)NCCCOc1cccc(CN2CCCCC2)c1 [Aminopotentidine (unmodified)] | – | – | NanoBRET Fold Response (DRD2, other tracers/Aminopotentidine (unmodified), 0.1μM): 1.53; NanoBRET Fold Response (DRD2, other tracers/Aminopotentidine (unmodified), 1μM): 1.51 |
| N#CN=C(NCCCOc1cccc(CN2CCCCC2)c1)NCCNC(=O)CCOCCOCCOCCOCCNC(=O)CCc1ccc2n1[B-](F)(F)[N+]1=C(c3ccc[nH]3)C=CC1=C2 [Aminopotentidine-2-NB590] | 1.18 | 1.22 | – |
| CN(C)CCC=C1c2ccccc2CCc2ccc(C(=O)NCCNC(=O)CCOCCOCCOCCOCCNC(=O)CCc3ccc4n3[B-](F)(F)[N+]3=C(c5ccc[nH]5)C=CC3=C4)cc21 [Amitriptyline-a-2-NB590] | – | – | NanoBRET Fold Response (tracer at 0.1μM): 1.50; NanoBRET Fold Response (tracer at 1μM): 1.97 |
| CN(C)CCC=C1c2ccccc2CCc2ccc(C(=O)NCCNC(=O)CCOCCOCCOCCOCCNC(=O)CCc3ccc4n3[B-](F)(F)[N+]3=C(c5ccc[nH]5)C=CC3=C4)cc21 [Amitriptyline-b-2-NB590] | – | – | NanoBRET Fold Response (tracer at 0.1μM, listed as amitriptyline-b-2-NB590): 1.54 |
| CN(CCC=C1c2ccccc2CCc2ccccc21)C(=O)CCOCCOCCOCCOCCNC(=O)CCc1ccc2n1[B-](F)(F)[N+]1=C(c3ccc[nH]3)C=CC1=C2 [Amitriptyline-e-2-NB590] | – | – | NanoBRET Fold Response (tracer at 1μM): 1.34 |
| COc1ccc2c(n1)c(CCNC(C)=O)cn2CCNC(=O)CCc1ccc2n1[B-](F)(F)[N+]1=C(c3ccc[nH]3)C=CC1=C2 [Azamelatonin-1-NB590] | – | – | NanoBRET Fold Response (0.1μM tracer): 1.19; NanoBRET Fold Response (1μM tracer): 0.52 |
| COc1ccc2[nH]c(-c3ccc(CNC(=O)CCOCCOCCOCCOCCNC(=O)CCc4ccc5n4[B-](F)(F)[N+]4=C(c6ccc[nH]6)C=CC4=C5)cc3)c(CCNC(C)=O)c2n1 [AzomelatoninICO9-2-NB590] | – | – | NanoBRET Fold Response (0.1μM tracer): 1.00; NanoBRET Fold Response (1μM tracer): 1.03 |
| O=C(CCOCCOCCOCCOCCNC(=O)CCc1ccc2n1[B-](F)(F)[N+]1=C(c3ccc[nH]3)C=CC1=C2)NCCCN1CCN(C2=Nc3cc(Cl)ccc3Nc3ccccc32)CC1 [Clozapine-a-2-NB590] | – | – | NanoBRET Fold Response (DRD2, 0.1μM tracer): 2.85; NanoBRET Fold Response (DRD2, 1μM tracer): 2.37 |
| O=C(CCOCCOCCOCCOCCNC(=O)CCc1ccc2n1[B-](F)(F)[N+]1=C(c3ccc[nH]3)C=CC1=C2)NCCCN1CCN(C2=Nc3ccccc3Oc3ccc(Cl)cc32)CC1 [Loxapine-a-2-NB590] | 1.97 | 1.62 | – |
| COc1ccccc1N1CCN(CCCCN2C(=O)c3ccc(CNC(=O)CCOCCOCCOCCOCCNC(=O)CCc4ccc5n4[B-](F)(F)[N+]4=C(c6ccc[nH]6)C=CC4=C5)cc3C2=O)CC1 [NAN-190-2-NB590] | 2.31 | 1.36 | – |
| COc1ccccc1N1CCN(CCCCN2C(=O)c3ccc(CNC(=O)CCOCCNC(=O)c4ccc(CNC(=O)CCc5ccc6n5[B-](F)(F)[N+]5=C(c7ccc[nH]7)C=CC5=C6)cc4)cc3C2=O)CC1 [NAN-190-3-NB590] | 1.80 | 1.21 | – |
| O=C(CCc1ccc2n1[B-](F)(F)[N+]1=C(c3ccc[nH]3)C=CC1=C2)NCc1ccc(C(=O)NCCOCCC(=O)N[C@@H]2CC[C@@]3(O)[C@H]4Cc5ccc(O)c6c5[C@@]3(CCN4CC3CC3)[C@H]2O6)cc1 [Naltrexone-3-NB590] | 0.98 | 1.36 | – |
| Cc1cc2c(s1)Nc1ccccc1N=C2N1CCN(CCCNC(=O)CCOCCOCCOCCOCCNC(=O)CCc2ccc3n2[B-](F)(F)[N+]2=C(c4ccc[nH]4)C=CC2=C3)CC1 [Olanzapine-a-2-NB590] | 1.98 | 2.25 | – |
| O=C(CCc1ccc2n1[B-](F)(F)[N+]1=C(c3ccc[nH]3)C=CC1=C2)NCc1ccc(C(=O)NCCOCCOCCNCC(O)COc2cccc3ccccc23)cc1 (centres unmarked) [Propranolol-3-NB590] | – | – | NanoBRET Fold Response (DRD2, 0.1μM): 1.17; NanoBRET Fold Response (DRD2, 1μM): 1.09 |
| O=C(CCc1ccc2n1[B-](F)(F)[N+]1=C(c3ccc[nH]3)C=CC1=C2)NCCOCCOCCNC(=O)OCCOCCN1CCN(C2=Nc3ccccc3Sc3ccccc32)CC1 [Quetiapine-a-2-NB590] | 1.86 | 1.76 | – |
| Cc1nc2n(c(=O)c1CCN1CCC(c3noc4cc(F)ccc34)CC1)CCCC2OC(=O)NCCOCCOCCOCCOCCNC(=O)CCc1ccc2n1[B-](F)(F)[N+]1=C(c3ccc[nH]3)C=CC1=C2 (centres unmarked) [Risperidone-2-NB590] | 2.85 | 2.07 | – |
| CC(C)N(CC[C@H](c1ccccc1)c1cc(CCNC(=O)CCOCCOCCOCCOCCNC(=O)CCc2ccc3n2[B-](F)(F)[N+]2=C(c4ccc[nH]4)C=CC2=C3)ccc1O)C(C)C [Tolterodine-2-NB590] | 1.07 | 1.09 | – |
| CC(C)N(CC[C@H](c1ccccc1)c1cc(CCNC(=O)c2ccc(CNC(=O)CCc3ccc4n3[B-](F)(F)[N+]3=C(c5ccc[nH]5)C=CC3=C4)cc2)ccc1O)C(C)C [Tolterodine-BZ-NB590] | 1.34 | 1.78 | – |
| CCCn1c(=O)c2[nH]c(-c3ccc(OCC(=O)NCCNC(=O)CCOCCNC(=O)c4ccc(CNC(=O)CCc5ccc6n5[B-](F)(F)[N+]5=C(c7ccc[nH]7)C=CC5=C6)cc4)cc3)nc2n(CCC)c1=O [XAC-3-NB590] | 1.17 | 1.85 | – |
